Earlier results as cited in PMC6426469 (Science Advances, 2019).

Key:
[1] = test system: APP/PS1 mice; settings: prolonged treatment for 30 days
[2] = test system: APP/PS1 mice; settings: 1-week treatment
[3] = test system: DG granule cells; settings: previous study

C#CCN(C)[C@H](C)Cc1ccccc1 [Selegiline, selegiline]
spatial memory impairments, Morris water maze [1]: failed to significantly reverse spatial memory impairments
memory impairments, passive avoidance test [2]: effective in rescuing memory impairments

C[C@H](NCc1ccc(OCc2cccc(F)c2)cc1)C(N)=O [safinamide]
efficacy on spike probability [3]: showed prolonged efficacy
